Measured values reported in patent publication US5006517A, “Treatment of Prader-Willi syndrome” (Progenics, Inc., priority 1989, dated 1991).
Read-outs that look alike come from different tables or passages of the source.

How the values were obtained:
[1] = Interconversion, absorption and circulation of alpha-ET, beta-ET and ET-dione; details: for oxidation at the C-3 position to ET-dione: orally or parenterally (i.p., i.m. or i.v.)
From the text: This is the subject of U.S. application Ser. No. 078,610, filed July 28, 1987 and incorporated herein by reference.

[2] = C57BL/KsJ-db/db mice; cited from earlier work
[3] = in diet, diabetic, genetically obese mice; cited from earlier work
[4] = normal individuals, endogenous metabolite of DHEA; cited from earlier work
[5] = Free alpha-ET blood levels after oral suspensions in eight normal human volunteers (crossover, RIA)
Experimental: Each subject received all three drugs in randomized order with a one-week wash-out period between doses. Following an overnight fast, subjects received 200 mg of test drug suspended in approximately 6 oz. of apple juice. Blood samples were drawn immediately prior to drug administration and at 15 minutes, 30 minutes, 1, 2, 4, 8, 12 and 24 hours.

[6] = Body weight in C57BL/K db/db diabetic mice on ET-dione chow; assay type: in vivo, mouse (C57BL/K db/db); details: for 6 wk gain: 6 weeks
From the text: (§1) Eighteen C57BL/K db/db mice were divided into three groups of 5 and one group (control) of 3. This mouse strain is more diabetic and more resistant to weight gain reduction than the mouse species used in Example 1. The mice were weighed and then permitted to consume a commercially-available chow and water ad librium over a six-week study period. At the end of each week, the mice were reweighed and their blood sugar determined. The chow supplied to three of the groups had ET-dione admixed therewith at either a 0.4, 0.6 or 0 8% concentration.

[7] = Blood sugar in C57BL/K db/db diabetic mice on ET-dione chow; assay type: in vivo, mouse (C57BL/K db/db); parameters: Blood Sugar: unit not given here
From the text: as §1

[8] = A^vy /A mice, 0.4% ET-dione
From the text: Inhibition of the development of obesity was studied in two mutant mouse strains used for diabetes evaluation: C57BL/6, C3HeB/FeJ (A^vy /A). […] C57BL/6 mice (Jackson Laboratories, Bar Harbor, ME) display the genetic obesity syndrome markers obese (ob) and diabetes (db) A^vy /A mice (Jackson Laboratories, Bar Harbor, ME) are characterized by mild obesity and an enhanced susceptibility to certain tumors.
days during week 4 and were then returned to the 0.4% dose level.

[9] = rat, before feeding program
Experimental: Food consumption and body weight were measured weekly. […] Liver weight (absolute and % of body weight), total cholesterol, % of esterified cholesterol and triglycerides in the liver were also determined. In addition, epididymal fat pad weights were measured.

[10] = not given; remark: listed apart in the source
[11] = genetically obese mice, variety of routes; cited from earlier work
[12] = genetically obese or diabetic mice; cited from earlier work
[13] = oral, severely diabetic mammals; cited from earlier work

## C[C@]12CC[C@@H](O)C[C@H]1CC[C@@H]1[C@@H]2CC[C@]2(C)C(=O)CC[C@@H]12 [Alpha-ET, 5-beta-androstan-3-alpha-ol-17-one]
[1]
  oxidation at the C-3 position to ET-dione: rapidly oxidized at the C-3 position to ET-dione
0.2% in diet, day 28
  % W vs Control Day 28: -9.8%
[2]
  Blood Sugar: reduced blood sugar
  effectiveness vs DHEA in preventing the development of diabetes: four time more effective than DHEA
  plasma insulin concentrations: increased plasma insulin concentrations
  protective effect on the pancreas (granules in islet beta cells): protective effect on the pancreas
[3]
  anti-obesity properties: effective both in preventing and in arresting the development of obesity
[4]
  urinary excretion: 3-5 mg per day
[5]; 30 minutes post-administration
  levels of conjugated alpha-ET relative to free alpha-ET: 2-5 times

## C[C@]12CCC(=O)C[C@H]1CC[C@@H]1[C@@H]2CC[C@]2(C)C(=O)CC[C@@H]12 [ET-dione, 5-beta-androstanedione]
[6]; 0.4% ET-dione in chow
  6 wk gain: 26.1 g
[6]; 0.4% ET-dione in chow, start
  Body Weight: 19.6 ± 1.8 g
[6]; 0.4% ET-dione in chow, week 1
  Body Weight: 26.7 ± 1.7 g
[6]; 0.4% ET-dione in chow, week 2
  Body Weight: 29.8 ± 1.2 g
[6]; 0.4% ET-dione in chow, week 3
  Body Weight: 34.4 ± 0.83 g
[6]; 0.4% ET-dione in chow, week 4
  Body Weight: 36.5 ± 0.8 g
[6]; 0.4% ET-dione in chow, week 5
  Body Weight: 42.2 ± 1.0 g
[6]; 0.4% ET-dione in chow, week 6
  Body Weight: 45.7 ± 0.7 g
[6]; 0.6% ET-dione in chow
  6 wk gain: 24.1 g
[6]; 0.6% ET-dione in chow, start
  Body Weight: 18.1 ± 1.6 g
[6]; 0.6% ET-dione in chow, week 1
  Body Weight: 23.7 ± 1.9 g
[6]; 0.6% ET-dione in chow, week 2
  Body Weight: 27.3 ± 1.8 g
[6]; 0.6% ET-dione in chow, week 3
  Body Weight: 31.9 ± 1.9 g
[6]; 0.6% ET-dione in chow, week 4
  Body Weight: 34.7 ± 1.9 g
[6]; 0.6% ET-dione in chow, week 5
  Body Weight: 39.1 ± 1.6 g
[6]; 0.6% ET-dione in chow, week 6
  Body Weight: 42.2 ± 0.9 g
[6]; 0.8% ET-dione in chow
  6 wk gain: 21.7 g
[6]; 0.8% ET-dione in chow, start
  Body Weight: 18.1 ± 1.0 g
[6]; 0.8% ET-dione in chow, week 1
  Body Weight: 23.3 ± 0.7 g
[6]; 0.8% ET-dione in chow, week 2
  Body Weight: 26.4 ± 0.6 g
[6]; 0.8% ET-dione in chow, week 3
  Body Weight: 31.1 ± 0.76 g
[6]; 0.8% ET-dione in chow, week 4
  Body Weight: 33.5 ± 0.91 g
[6]; 0.8% ET-dione in chow, week 5
  Body Weight: 37.0 ± 0.9 g
[6]; 0.8% ET-dione in chow, week 6
  Body Weight: 39.8 ± 1.2 g
[6]; ET-dione in chow, 0.4-0.8%
  six-week weight gain, in words: reduced the six-week weight gain
[7]; 0.4% ET-dione in chow, week 1
  Blood Sugar: 149 ± 3.9
[7]; 0.4% ET-dione in chow, week 2
  Blood Sugar: 156 ± 8.3
[7]; 0.4% ET-dione in chow, week 3
  Blood Sugar: 151 ± 6.3
[7]; 0.4% ET-dione in chow, week 4
  Blood Sugar: 148 ± 5.6
[7]; 0.4% ET-dione in chow, week 5
  Blood Sugar: 148 ± 17.2
[7]; 0.4% ET-dione in chow, week 6
  Blood Sugar: 168 ± 24.5
[7]; 0.6% ET-dione in chow, week 1
  Blood Sugar: 143 ± 9.0
[7]; 0.6% ET-dione in chow, week 2
  Blood Sugar: 124 ± 10.7
[7]; 0.6% ET-dione in chow, week 3
  Blood Sugar: 151 ± 11.5
[7]; 0.6% ET-dione in chow, week 4
  Blood Sugar: 152 ± 3.7
[7]; 0.6% ET-dione in chow, week 5
  Blood Sugar: 159 ± 17
[7]; 0.6% ET-dione in chow, week 6
  Blood Sugar: 195 ± 37
[7]; 0.8% ET-dione in chow, week 1
  Blood Sugar: 128 ± 5.0
[7]; 0.8% ET-dione in chow, week 2
  Blood Sugar: 126 ± 6.8
[7]; 0.8% ET-dione in chow, week 3
  Blood Sugar: 147 ± 4.2
[7]; 0.8% ET-dione in chow, week 4
  Blood Sugar: 148 ± 3.7
[7]; 0.8% ET-dione in chow, week 5
  Blood Sugar: 137 ± 6.7
[7]; 0.8% ET-dione in chow, week 6
  Blood Sugar: 184 ± 31
[7]; ET-dione in chow, 0.4-0.8%
  blood sugar level vs untreated mice, in words: roughly half that of the untreated mice
[1]; animal and human pharmacokinetic data
  blood levels of free alpha-ET: increased blood levels of free alpha-ET
[8]
  effectiveness vs 0.1% alpha- and beta-ET, in words: comparable in effectiveness to 0.1% alpha- and beta-ET
[9]
  RIA value for alpha-ET, initial: approximately 40 nanograms per deciliter
All concentrations tested
  effectiveness on weight gain relative to alpha-ET: almost twice as effective as alpha-ET
rat, in vivo
  effectiveness relative to alpha-ET (general statement): equally or, in some cases, almost twice as effective
[10]; 0.4% in diet, average weeks 1-4
  Food consumption, Av. Wks 1-4: 22.0 g/day
[10]; second rat study
  effectiveness in reducing food consumption relative to alpha-ET: equally effective as alpha-ET in reducing food consumption
[5]
  blood levels of alpha-ET over equivalent dosages of alpha-ET: significantly enhanced blood levels of alpha-ET
[5]; 15 minutes to approximately 1 hour after administration
  amounts of alpha-ET in blood, in words: significantly higher amounts of alpha-ET
[5]; four hours post-administration
  free alpha-ET levels, in words, vs alpha-ET or beta-ET administration: significantly higher than from alpha-ET or beta-ET administration

## C[C@]12CC[C@H](O)C[C@H]1CC[C@@H]1[C@@H]2CC[C@]2(C)C(=O)CC[C@@H]12 [Beta-ET, 5-beta-androstan-3-beta-ol-17-one]
[1]
  oxidation at the C-3 position to ET-dione: rapidly oxidized at the C-3 position to ET-dione
[2]
  Blood Sugar: reduced blood sugar
  effectiveness vs DHEA in preventing the development of diabetes: four time more effective than DHEA
  plasma insulin concentrations: increased plasma insulin concentrations
  protective effect on the pancreas (granules in islet beta cells): protective effect on the pancreas
[3]
  anti-obesity properties: effective both in preventing and in arresting the development of obesity

## C[C@]12CC[C@H](O)CC1=CC[C@@H]1[C@@H]2CC[C@]2(C)C(=O)CC[C@@H]12 [DHEA, 3-beta-hydroxyandrost-5-en-17-one]
[11]
  rate of weight gain: decreased the rate of weight gain
[12]
  preventive effect on the development of diabetes: marked preventive effect on the development of diabetes
[13]
  glucose tolerance: improved glucose tolerance
  hyperglycemia: restored hyperglycemia to normal levels

## C[C@]12CC[C@H](O)C[C@@H]1CC[C@@H]1[C@@H]2CC[C@]2(C)C(=O)CC[C@@H]12 [epiandrosterone, reference compound]
[2]
  effectiveness vs DHEA in preventing the development of diabetes: not

## C[C@]12CC[C@@H](O)C[C@@H]1CC[C@@H]1[C@@H]2CC[C@]2(C)C(=O)CC[C@@H]12 [androsterone, reference compound]
[2]
  effectiveness vs DHEA in preventing the development of diabetes: not
